Test results as given in PubChem BioAssay AID1963984 (Molecular Pharmacology Branch, DTP, NCI, 2024).

System: 233499-124-R-J3-PDC spheroids with HUVEC/MSC, viability
Assay: Anticancer human tumor 233499-124-R-J3-PDC patient-derived colon adenocarcinoma cell line growth inhibition [PI3K]
Settings: for IC50: curve of first compound; for viability, T/C: stronger effect = lower value
Excerpt: Combinatorial screen of targeted agents with the PI3K inhibitors inavolisib, alpelisib, duvelisib, and copanlisib in multi-cell type tumor spheroids
A high-throughput screen of multi-cell type tumor spheroids was designed to identify active combinations of targeted small molecules and PI3K pathway inhibitors. Complex spheroids include a stromal component modeled by human endothelial cells (HUVEC) and fibroblasts modeled by human mesenchymal stem cells (MSCs). The concentration ranges selected for each drug and investigational agent were based upon clinically achievable concentrations if the clinical Cmax of the agent was known.
Compounds. The drugs and investigational agents: inavolisib (NSC800729), alpelisib (NSC765974), duvelisib (NSC772469), copanlisib (NSC816437), ipatasertib (NSC767898), afuresertib (NSC778305), talazoparib (NSC767125), sapanisertib (NSC764658), selumetinib (NSC741078), tovorafenib (DAY101, NSC766906), vemurafenib (NSC761431), ravoxertinib (NSC781343), sotorasib (NSC818433), MRTX1133 (NSC 836407), abemaciclib (NSC 768073), palbociclib (NSC758247), venetoclax (NSC 766270), SY5609 (NSC837396), enzalutamide (NSC755605), and darolutamide (NSC825331), were obtained from the National Cancer Institute (NCI) Developmental Therapeutics Program Chemical Repository. The FDA-approved anticancer drug set is available from the NCI Developmental Therapeutics Program. […] The stock solutions were prepared in dimethyl sulfoxide (DMSO, Sigma-Aldrich, St. Louis, MO, cat. D2650) at 800-fold the tested concentration and stored at -70 degrees C prior to their use. All drugs and investigational agents were tested over a range starting from a high concentration at or near the clinical Cmax and decreasing in half-log increments. If the clinical Cmax for an agent had not been determined, the highest concentration tested was 10 microM.
Cell Culture. All cells were maintained in an incubator at 37 degrees C and 5% CO2 with 95% humidity. The PDC lines were cultured according to standard operating procedures established by the NCI PDMR (https://pdmr.cancer.gov/sops/default.htm). All PDCs were thawed and cultured in Matrigel-coated flasks prepared with a working solution of 1X Ham's F-12 nutrient mix, without supplementation (Invitrogen, Waltham, MA, cat. 11765054), 100 U/mL penicillin-streptomycin (Invitrogen, cat. 15140122), and 2.5% Matrigel (Corning Inc., Corning, NY, cat. 354248) for the first three passages. The 354836-022-R-J1-PDC, 475296-252-R-J1-PDC, and 997726-040-R-J2-PDC lines were cultured in 6A media, which includes advanced DMEM/F-12 (Thermo Fisher Scientific, cat. 12634028), 10 mM HEPES (Thermo Fisher Scientific, cat. 15630080), 1X GlutaMAX supplement (Thermo Fisher Scientific, cat. 35050061), 0.1 mg/mL primocin (InvivoGen, San Diego, CA, cat. ant-pm-2), 10% defined fetal bovine serum, heat inactivated (HyClone Laboratories Inc., Logan, UT, cat. SH30070.03HI), 50% L-WRN conditioned media (ATCC, cat. CRL-3276), 1.25 mM N-Acetyl-L-cysteine (Sigma-Aldrich, cat. A9165), 10 mM nicotinamide (Sigma-Aldrich, cat. N0636), 1X B-27 supplement (Thermo Fisher Scientific, cat. 17504044), 1X N-2 supplement (Thermo Fisher Scientific, cat. 17502048), and 10 microM Y-27632 dihydrochloride (Tocris Bioscience, Bristol, United Kingdom, cat. 1254). The 624824-186-R-J2-PDC line was cultured in 6C/Colon 1B media, which includes all 6A media components plus 50 ng/mL human EGF recombinant protein (Thermo Fisher Scientific, cat. PHG0311). […]

[1] = second compound 0.00316 µM, first compound 0.0316 µM
[2] = second compound 0.00316 µM, first compound 0.1 µM
[3] = second compound 0.00316 µM, first compound 0.316 µM
[4] = second compound 0.00316 µM, first compound 1 µM
[5] = second compound 0.00316 µM, first compound 3.16 µM
[6] = second compound 0.00316 µM, first compound 10 µM
[7] = second compound 0.01 µM, first compound 0.0316 µM
[8] = second compound 0.01 µM, first compound 0.1 µM
[9] = second compound 0.01 µM, first compound 0.316 µM
[10] = second compound 0.01 µM, first compound 1 µM
[11] = second compound 0.01 µM, first compound 3.16 µM
[12] = second compound 0.01 µM, first compound 10 µM
[13] = second compound 0.0316 µM, first compound 0.0316 µM
[14] = second compound 0.0316 µM, first compound 0.1 µM
[15] = second compound 0.0316 µM, first compound 0.316 µM
[16] = second compound 0.0316 µM, first compound 1 µM
[17] = second compound 0.0316 µM, first compound 3.16 µM
[18] = second compound 0.0316 µM, first compound 10 µM
[19] = second compound 0.1 µM, first compound 0.0316 µM
[20] = second compound 0.1 µM, first compound 0.1 µM
[21] = second compound 0.1 µM, first compound 0.316 µM
[22] = second compound 0.1 µM, first compound 1 µM
[23] = second compound 0.1 µM, first compound 3.16 µM
[24] = second compound 0.1 µM, first compound 10 µM
[25] = second compound 0.316 µM, first compound 0.0316 µM
[26] = second compound 0.316 µM, first compound 0.1 µM
[27] = second compound 0.316 µM, first compound 0.316 µM
[28] = second compound 0.316 µM, first compound 1 µM
[29] = second compound 0.316 µM, first compound 3.16 µM
[30] = second compound 0.316 µM, first compound 10 µM
[31] = second compound 1 µM, first compound 0.0316 µM
[32] = second compound 1 µM, first compound 0.1 µM
[33] = second compound 1 µM, first compound 0.316 µM
[34] = second compound 1 µM, first compound 1 µM
[35] = second compound 1 µM, first compound 3.16 µM
[36] = second compound 1 µM, first compound 10 µM
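Further: spheroids exposed to agents for seven days before readout.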
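Wherever viability, T/C is given: percent viability relative to DMSO vehicle control taken as 100%.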

## CC1(C)CCC(CN2CCN(c3ccc(C(=O)NS(=O)(=O)c4ccc(NCC5CCOCC5)c([N+](=O)[O-])c4)c(Oc4cnc5[nH]ccc5c4)c3)CC2)=C(c2ccc(Cl)cc2)C1 + CC(Nc1ccc2c(c1)OCCn1cc(N3C(=O)OCC3C(F)F)nc1-2)C(N)=O
Second compound 0.00316 µM
  IC50: 5.38 µM
Second compound 0.01 µM
  IC50: 4.1 µM
Second compound 0.0316 µM
  IC50: 4.86 µM
Second compound 0.1 µM
  IC50: 4.85 µM
Second compound 0.316 µM
  IC50: 2.16 µM
Second compound 1 µM
  IC50: 3.2 µM
[1]
  viability, T/C: 99.3%
[2]
  viability, T/C: 94.1%
[3]
  viability, T/C: 71.9%
[4]
  viability, T/C: 109%
[5]
  viability, T/C: 90.1%
[6]
  viability, T/C: 3.01%
[7]
  viability, T/C: 86%
[8]
  viability, T/C: 85.5%
[9]
  viability, T/C: 96.3%
[10]
  viability, T/C: 74.7%
[11]
  viability, T/C: 65.7%
[12]
  viability, T/C: 2.45%
[13]
  viability, T/C: 79.3%
[14]
  viability, T/C: 66.2%
[15]
  viability, T/C: 75.8%
[16]
  viability, T/C: 73.6%
[17]
  viability, T/C: 93.5%
[18]
  viability, T/C: 3.53%
[19]
  viability, T/C: 60.9%
[20]
  viability, T/C: 85.6%
[21]
  viability, T/C: 86.5%
[22]
  viability, T/C: 81%
[23]
  viability, T/C: 78.8%
[24]
  viability, T/C: 1.51%
[25]
  viability, T/C: 75.8%
[26]
  viability, T/C: 69.3%
[27]
  viability, T/C: 65.2%
[28]
  viability, T/C: 77.2%
[29]
  viability, T/C: 39.2%
[30]
  viability, T/C: 4.28%
[31]
  viability, T/C: 66.8%
[32]
  viability, T/C: 49%
[33]
  viability, T/C: 47.4%
[34]
  viability, T/C: 58.2%
[35]
  viability, T/C: 50.1%
[36]
  viability, T/C: 2.38%

## C[C@@H](NC(=O)c1ncnc(N)c1Cl)c1ncc(C(=O)Nc2cc(C(F)(F)F)c(Cl)cn2)s1 + CC(Nc1ccc2c(c1)OCCn1cc(N3C(=O)OCC3C(F)F)nc1-2)C(N)=O
Second compound 0.00316 µM
  IC50: > 10 µM
Second compound 0.01 µM
  IC50: > 10 µM
Second compound 0.0316 µM
  IC50: > 10 µM
Second compound 0.1 µM
  IC50: > 10 µM
Second compound 0.316 µM
  IC50: > 10 µM
Second compound 1 µM
  IC50: > 10 µM
[1]
  viability, T/C: 102%
[2]
  viability, T/C: 112%
[3]
  viability, T/C: 113%
[4]
  viability, T/C: 105%
[5]
  viability, T/C: 126%
[6]
  viability, T/C: 90.5%
[7]
  viability, T/C: 113%
[8]
  viability, T/C: 119%
[9]
  viability, T/C: 130%
[10]
  viability, T/C: 105%
[11]
  viability, T/C: 111%
[12]
  viability, T/C: 102%
[13]
  viability, T/C: 99.4%
[14]
  viability, T/C: 119%
[15]
  viability, T/C: 109%
[16]
  viability, T/C: 98.6%
[17]
  viability, T/C: 113%
[18]
  viability, T/C: 74.5%
[19]
  viability, T/C: 87.2%
[20]
  viability, T/C: 84.6%
[21]
  viability, T/C: 108%
[22]
  viability, T/C: 106%
[23]
  viability, T/C: 102%
[24]
  viability, T/C: 92%
[25]
  viability, T/C: 82.8%
[26]
  viability, T/C: 81.2%
[27]
  viability, T/C: 85.6%
[28]
  viability, T/C: 95.2%
[29]
  viability, T/C: 102%
[30]
  viability, T/C: 65.8%
[31]
  viability, T/C: 53.5%
[32]
  viability, T/C: 68.5%
[33]
  viability, T/C: 52.5%
[34]
  viability, T/C: 83%
[35]
  viability, T/C: 77.2%
[36]
  viability, T/C: 56.6%
